Here are results for eight compounds from ChEMBL document CHEMBL1275254 (2010).

As a reminder, the MIC is the smallest concentration in the dilution series that meets the test's criterion for growth inhibition.

Values after ≈ are worked out from the molar mass of the structure shown.

In the assay the test system is Burkholderia pseudomallei. Description: Antimicrobial activity against Burkholderia pseudomallei 1026b after 24 hrs by broth microdilution method. The class given is functional.
In turn, `CN[C@@H]1[C@H](O)[C@H](NC)[C@H]2O[C@@]3(O)C(=O)C[C@@H](C)O[C@H]3O[C@@H]2[C@H]1O` [SPECTINOMYCIN] returned an MIC of 2050 µg/mL (≈ 6160 µM).
Under `NC[C@H]1O[C@H](O[C@H]2[C@H](O)[C@@H](O[C@H]3O[C@H](CO)[C@@H](O)[C@H](N)[C@H]3O)[C@H](N)C[C@@H]2N)[C@H](O)[C@@H](O)[C@@H]1O` [KANAMYCIN] stands 64 µg/mL (≈ 132 µM); under `CC[C@H]1OC(=O)[C@H](C)[C@@H](O[C@H]2C[C@@](C)(OC)[C@@H](O)[C@H](C)O2)[C@H](C)[C@@H](O[C@@H]2O[C@H](C)C[C@H](N(C)C)[C@H]2O)[C@](C)(OC)C[C@@H](C)C(=O)[C@H](C)[C@@H](O)[C@]1(C)O` [CLARITHROMYCIN], 128 µg/mL (≈ 171 µM).
To `CN[C@@H]1[C@H](O[C@H]2[C@H](O[C@H]3[C@H](O)[C@@H](O)[C@H](N=C(N)N)[C@@H](O)[C@@H]3N=C(N)N)O[C@@H](C)[C@]2(O)C=O)O[C@@H](CO)[C@H](O)[C@H]1O` [STREPTOMYCIN] belongs above 2050 µg/mL.
Consider GENTAMICIN, for which the MIC stood at 512 µg/mL.
Under `CCC[C@@H]1C[C@@H](C(=O)N[C@@H]([C@H]2O[C@H](SC)[C@H](O)[C@@H](O)[C@H]2O)[C@H](C)Cl)N(C)C1` [CLINDAMYCIN] stands above 4100 µg/mL; under `O=C(N[C@H](CO)[C@H](O)c1ccc([N+](=O)[O-])cc1)C(Cl)Cl` [CHLORAMPHENICOL], 8 µg/mL (≈ 24.8 µM).
To `CC1COc2c(N3CCN(C)CC3)c(F)cc3c(=O)c(C(=O)O)cn1c23` (stereo not drawn) [OFLOXACIN] belongs 2 µg/mL (≈ 5.53 µM).
